Laboratory results from US11135234B2, “Effective aminoglycoside antibiotic for multidrug-resistant bacteria” (MICROBIAL CHEMISTRY RESEARCH FOUNDATION, priority 2015, dated 2021).
In brackets after ≈: the same amount, converted by molar mass.

Tests used:
[1] = system: K. pneumoniae ATCC BAA-2146; experiment: MIC, agar plate dilution method, K. pneumoniae ATCC BAA-2146; type: cell-based, Klebsiella pneumoniae; conditions: for minimal inhibitory concentration (MIC): K. pneumoniae ATCC BAA-2146, NDM-producing strain; for MIC: Klebsiella pneumoniae, ATCCBAA2146, K. pneumoniae ATCC BAA-2146, NDM-producing strain, read-out: minimal inhibitory concentration (MIC)
In short: (§1)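 Minimal inhibitory concentration (μg/mL) was determined by agar plate dilution following the Japan Society of Chemotherapy method.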

[2] = system: S. marcescens TH-0447; experiment: MIC, agar plate dilution method, S. marcescens TH-0447; type: cell-based, Serratia marcescens; conditions: for minimal inhibitory concentration (MIC): S. marcescens TH-0447, AMK-resistant; for MIC: Serratia marcescens, TH0447, S. marcescens TH-0447, AMK-resistant, read-out: minimal inhibitory concentration (MIC)
In short: as §1

[3] = system: S. marcescens GN6944; experiment: MIC, agar plate dilution method, S. marcescens GN6944; type: cell-based, Serratia marcescens; conditions: S. marcescens GN6944, GM-resistant; for MIC: Serratia marcescens, read-out: minimal inhibitory concentration (MIC)
In short: as §1

[4] = system: S. aureus MF490; experiment: MIC, agar plate dilution method, S. aureus MF490; type: cell-based, Staphylococcus aureus; conditions: for minimal inhibitory concentration (MIC): S. aureus MF490, MRSA; for MIC: Staphylococcus aureus, MRSA, read-out: minimal inhibitory concentration (MIC)
In short: as §1

[5] = system: S. aureus RN4220; experiment: MIC, agar plate dilution method, S. aureus RN4220; type: cell-based, Staphylococcus aureus; conditions: for minimal inhibitory concentration (MIC): S. aureus RN4220, Sensitive bacterium; for MIC: Staphylococcus aureus, RN4220, S. aureus RN4220, Sensitive bacterium, read-out: minimal inhibitory concentration (MIC)
In short: as §1

[6] = system: P. aeruginosa PAO1; experiment: MIC, agar plate dilution method, P. aeruginosa PAO1; type: cell-based, Pseudomonas aeruginosa; conditions: for minimal inhibitory concentration (MIC): P. aeruginosa PAO1, Sensitive bacterium; for MIC: Pseudomonas aeruginosa, PAO1, P. aeruginosa PAO1, Sensitive bacterium, read-out: minimal inhibitory concentration (MIC)
In short: as §1

[7] = system: P. aeruginosa PAO1/GN315; experiment: MIC, agar plate dilution method, P. aeruginosa PAO1/GN315; type: cell-based, Pseudomonas aeruginosa; conditions: for minimal inhibitory concentration (MIC): P. aeruginosa PAO1/GN315, AMK-resistant; for MIC: Pseudomonas aeruginosa, read-out: minimal inhibitory concentration (MIC), P. aeruginosa PAO1/GN315, AMK-resistant
In short: as §1

[8] = system: K. pneumoniae ATCC BAA-1705; experiment: MIC, agar plate dilution method, K. pneumoniae ATCC BAA-1705; type: cell-based, Klebsiella pneumoniae; conditions: for minimal inhibitory concentration (MIC): K. pneumoniae ATCC BAA-1705, KPC-producing strain; for MIC: Klebsiella pneumoniae, ATCCBAA1705, K. pneumoniae ATCC BAA-1705, KPC-producing strain, read-out: minimal inhibitory concentration (MIC)
In short: as §1

[9] = system: E. faecium ATCC19434; experiment: MIC, agar plate dilution method, E. faecium ATCC19434; type: cell-based, Enterococcus faecium; conditions: for minimal inhibitory concentration (MIC): E. faecium ATCC19434; for MIC: Enterococcus faecium, ATCC19434, E. faecium ATCC19434, read-out: minimal inhibitory concentration (MIC)
In short: as §1

[10] = system: P. aeruginosa MSC01035; experiment: MIC, agar plate dilution method, P. aeruginosa MSC01035; type: cell-based, Pseudomonas aeruginosa; conditions: P. aeruginosa MSC01035, ABK-resistant; for MIC: Pseudomonas aeruginosa, read-out: minimal inhibitory concentration (MIC)
In short: as §1

[11] = system: S. aureus RN4220/pMS520; experiment: MIC, agar plate dilution method, S. aureus RN4220/pMS520; type: cell-based, Staphylococcus aureus; conditions: for minimal inhibitory concentration (MIC): S. aureus RN4220/pMS520, MRSA; for MIC: Staphylococcus aureus, MRSA, read-out: minimal inhibitory concentration (MIC), S. aureus RN4220/pMS520, MRSA
In short: as §1

[12] = system: A. baumannii ATCC BAA-1710; experiment: MIC, agar plate dilution method, A. baumannii ATCC BAA-1710; type: cell-based, Acinetobacter baumannii; conditions: for minimal inhibitory concentration (MIC): A. baumannii ATCC BAA-1710, MDRA; for MIC: Acinetobacter baumannii, ATCCBAA1710, A. baumannii ATCC BAA-1710, MDRA, read-out: minimal inhibitory concentration (MIC)
In short: as §1

[13] = system: E. coli JM109/pMW218; experiment: MIC, agar plate dilution method, E. coli JM109/pMW218; type: cell-based, Escherichia coli; conditions: for minimal inhibitory concentration (MIC): E. coli JM109/pMW218, Sensitive bacterium; for MIC: Escherichia coli, JM109/PMW218, E. coli JM109/pMW218, Sensitive bacterium, read-out: minimal inhibitory concentration (MIC)
In short: as §1

[14] = system: P. aeruginosa MSC17707; experiment: MIC, agar plate dilution method, P. aeruginosa MSC17707; type: cell-based, Pseudomonas aeruginosa; conditions: for minimal inhibitory concentration (MIC): P. aeruginosa MSC17707, AMK-resistant; for MIC: Pseudomonas aeruginosa, MSC17707, P. aeruginosa MSC17707, AMK-resistant, read-out: minimal inhibitory concentration (MIC)
In short: as §1

Structure (SMILES)	minimal inhibitory concentration (MIC) [1]	minimal inhibitory concentration (MIC) [2]	minimal inhibitory concentration (MIC) [3]	minimal inhibitory concentration (MIC) [4]	minimal inhibitory concentration (MIC) [5]	minimal inhibitory concentration (MIC) [6]	minimal inhibitory concentration (MIC) [7]	minimal inhibitory concentration (MIC) [8]	minimal inhibitory concentration (MIC) [9]	minimal inhibitory concentration (MIC) [10]	minimal inhibitory concentration (MIC) [11]	minimal inhibitory concentration (MIC) [12]	minimal inhibitory concentration (MIC) [13]	minimal inhibitory concentration (MIC) [14]	MIC [1]	MIC [2]	MIC [3]	MIC [4]	MIC [5]	MIC [7]	other results
CNC1C(CO)OC(OC2OC3CC(N)C(OC4C(N)CC(N)C(O)C4O)OC3C(O)C2NC)C(O)C1O (stereo not shown) [Compound A4-a, 4″-N-methylapramycin]	2 µg/mL (≈ 3.61 µM)	8 µg/mL (≈ 14.5 µM)	8 µg/mL (≈ 14.5 µM)	16 µg/mL (≈ 28.9 µM)	4 µg/mL (≈ 7.23 µM)	8 µg/mL (≈ 14.5 µM)	8 µg/mL (≈ 14.5 µM)	2 µg/mL (≈ 3.61 µM)	32 µg/mL (≈ 57.8 µM)	8 µg/mL (≈ 14.5 µM)	4 µg/mL (≈ 7.23 µM)	16 µg/mL (≈ 28.9 µM)	2 µg/mL (≈ 3.61 µM)	8 µg/mL (≈ 14.5 µM)							
CNC1C(O[C@H]2OC(CO)[C@@H](NC(=O)[C@H](C)N)[C@H](O)C2O)O[C@H]2CC(N)[C@@H](O[C@@H]3C(N)C[C@@H](N)C(O)[C@H]3O)OC2C1O (stereo partly drawn) [Compound V1-c, 4″-N-(L-alanyl)apramycin]	2 µg/mL (≈ 3.28 µM)	16 µg/mL (≈ 26.2 µM)	8 µg/mL (≈ 13.1 µM)	16 µg/mL (≈ 26.2 µM)	4 µg/mL (≈ 6.55 µM)	16 µg/mL (≈ 26.2 µM)	8 µg/mL (≈ 13.1 µM)	4 µg/mL (≈ 6.55 µM)	32 µg/mL (≈ 52.4 µM)	8 µg/mL (≈ 13.1 µM)	4 µg/mL (≈ 6.55 µM)	8 µg/mL (≈ 13.1 µM)	2 µg/mL (≈ 3.28 µM)	8 µg/mL (≈ 13.1 µM)							
CNC1C(O[C@H]2OC(CO)[C@@H](NC(=O)[C@H](O)CN)[C@H](O)C2O)O[C@H]2C[C@H](N)[C@@H](O[C@@H]3C(N)C[C@@H](N)C(O)[C@H]3O)OC2C1O (stereo partly drawn) [Compound V1-s, 5-epi-4″-N-(D-isoseryl)apramycin]															1 µg/mL (≈ 1.6 µM)	8 µg/mL (≈ 12.8 µM)	4 µg/mL (≈ 6.38 µM)	4 µg/mL (≈ 6.38 µM)	1 µg/mL (≈ 1.6 µM)	2 µg/mL (≈ 3.19 µM)	MIC [6]: 1 µg/mL (≈ 1.6 µM); MIC [8]: 0.5 µg/mL (≈ 0.798 µM); MIC [9]: 16 µg/mL (≈ 25.5 µM); MIC [10]: 4 µg/mL (≈ 6.38 µM); MIC [11]: 1 µg/mL (≈ 1.6 µM); MIC [12]: 4 µg/mL (≈ 6.38 µM); MIC [13]: 0.5 µg/mL (≈ 0.798 µM); MIC [14]: 2 µg/mL (≈ 3.19 µM)
CNC1C(O[C@H]2OC(CO)[C@@H](NC(=O)CN)[C@H](O)C2O)O[C@H]2C[C@H](N)[C@@H](O[C@@H]3C(N)C[C@@H](N)C[C@H]3O)OC2C1O (stereo partly drawn) [Compound V1-o, 6-deoxy-5-epi-4″-N-glycylapramycin]															1 µg/mL (≈ 1.72 µM)	8 µg/mL (≈ 13.8 µM)	4 µg/mL (≈ 6.89 µM)	4 µg/mL (≈ 6.89 µM)	1 µg/mL (≈ 1.72 µM)	2 µg/mL (≈ 3.44 µM)	MIC [6]: 2 µg/mL (≈ 3.44 µM); MIC [8]: 1 µg/mL (≈ 1.72 µM); MIC [9]: 8 µg/mL (≈ 13.8 µM); MIC [10]: 4 µg/mL (≈ 6.89 µM); MIC [11]: 1 µg/mL (≈ 1.72 µM); MIC [12]: 4 µg/mL (≈ 6.89 µM); MIC [13]: 0.5 µg/mL (≈ 0.861 µM); MIC [14]: 2 µg/mL (≈ 3.44 µM)
CNC1C(OC2OC(CO)C(N)CC2O)OC2CC(N)C(OC3C(N)CC(N)C(O)C3N)OC2C1O (stereo not shown) [Compound N9, 5-amino-5,3″-dideoxy-5-epiapramycin]	1 µg/mL (≈ 1.91 µM)	8 µg/mL (≈ 15.3 µM)	8 µg/mL (≈ 15.3 µM)	8 µg/mL (≈ 15.3 µM)	2 µg/mL (≈ 3.83 µM)	4 µg/mL (≈ 7.65 µM)	4 µg/mL (≈ 7.65 µM)	2 µg/mL (≈ 3.83 µM)	16 µg/mL (≈ 30.6 µM)	8 µg/mL (≈ 15.3 µM)	2 µg/mL (≈ 3.83 µM)	8 µg/mL (≈ 15.3 µM)	1 µg/mL (≈ 1.91 µM)	8 µg/mL (≈ 15.3 µM)							
CNC1C(OC2OC(CO)C(N)C(O)C2O)OC2CC(N)C(OC3C(N)CC(N)C(O)C3O)OC2C1O (stereo not shown) [Compound B5, 5-epiapramycin]	1 µg/mL (≈ 1.85 µM)	8 µg/mL (≈ 14.8 µM)	8 µg/mL (≈ 14.8 µM)	8 µg/mL (≈ 14.8 µM)	4 µg/mL (≈ 7.41 µM)	4 µg/mL (≈ 7.41 µM)	4 µg/mL (≈ 7.41 µM)	1 µg/mL (≈ 1.85 µM)	16 µg/mL (≈ 29.7 µM)	4 µg/mL (≈ 7.41 µM)	2 µg/mL (≈ 3.71 µM)	8 µg/mL (≈ 14.8 µM)	1 µg/mL (≈ 1.85 µM)	4 µg/mL (≈ 7.41 µM)							
CNC1C(O[C@H]2OC(CO)[C@@H](NC(=O)[C@H](C)N)[C@H](O)C2O)O[C@H]2CC(N)[C@@H](O[C@@H]3C(N)C[C@@H](N)C(O)[C@H]3O)OC2C1O (stereo partly drawn) [Compound V1-k, 4″-N-(L-alanyl)-5-epiapramycin]						4 µg/mL (≈ 6.55 µM)		1 µg/mL (≈ 1.64 µM)							1 µg/mL (≈ 1.64 µM)	16 µg/mL (≈ 26.2 µM)	8 µg/mL (≈ 13.1 µM)	8 µg/mL (≈ 13.1 µM)	4 µg/mL (≈ 6.55 µM)	4 µg/mL (≈ 6.55 µM)	MIC [9]: 16 µg/mL (≈ 26.2 µM); MIC [10]: 8 µg/mL (≈ 13.1 µM); MIC [11]: 4 µg/mL (≈ 6.55 µM); MIC [12]: 8 µg/mL (≈ 13.1 µM); MIC [13]: 1 µg/mL (≈ 1.64 µM); MIC [14]: 4 µg/mL (≈ 6.55 µM)
CNC1C(O[C@H]2OC(C)[C@@H](N)[C@H](O)C2O)O[C@H]2CC(N)[C@@H](O[C@H]3CC[C@H](N)CC3N)OC2C1O (stereo partly shown) [Compound R6, 5,6,6″-trideoxyapramycin]															1 µg/mL (≈ 2.03 µM)	8 µg/mL (≈ 16.3 µM)	4 µg/mL (≈ 8.14 µM)	8 µg/mL (≈ 16.3 µM)	2 µg/mL (≈ 4.07 µM)	8 µg/mL (≈ 16.3 µM)	MIC [6]: 8 µg/mL (≈ 16.3 µM); MIC [8]: 2 µg/mL (≈ 4.07 µM); MIC [9]: 16 µg/mL (≈ 32.5 µM); MIC [10]: 16 µg/mL (≈ 32.5 µM); MIC [11]: 2 µg/mL (≈ 4.07 µM); MIC [12]: 8 µg/mL (≈ 16.3 µM); MIC [13]: 1 µg/mL (≈ 2.03 µM); MIC [14]: 16 µg/mL (≈ 32.5 µM)
